Legend:
[1] = system: isolated liver mitochondria; test: Mitochondrial respiration, Clark-type oxygen electrode, isolated liver mitochondria; design: species or system rat; conditions: for reduction of respiration: tissue not specified
Method: Mitochondrial respiration was measured before and after CO gas exposure in a Clark-type oxygen electrode respirometry system. The effects of infusion of both reduced hemoglobin and myoglobin were evaluated. Fresh liver was collected from a normal rat, and mitochondria were isolated through differential centrifugation. For left ventricle (LV) tissue, fresh LV was collected from a normal rat and then homogenized. The resulting mitochondria and LV tissue was put into the Clark-type electrode air tight reaction chamber, then substrates (succinate (mitochondria) or malate and pyruvate (LV) and ADP) were added. Mitochondria respired to 0% oxygen and then the system was reoxygenated with a pipetted injection of room air. Mitochondria respired back down to the desired 02 concentration. At this point, CO was added, either in gas form or saturated PBS solution. The system was then reoxygenated, and respiration occurred down to 0%. These rates of respiration were compared with pre-CO exposure. The reason for the first reoxygenation step was to more equally compare rates of mitochondria that have experienced some hypoxia, which can damage their function. After this was completed, CO scavenging agents were added, the system was reoxygenated and this final rate of respiration was compared both to pre-CO and post-CO respiration.
CO was then infused, the system was reoxygenated, and rates of respiration were compared. After respiration to 0% 02, myoglobin was infused, the system was reoxygenated and the rates were compared.
CO poisoning has long term effects on patients, and one theory is the poisoning of mitochondria leads to generation of increased reactive oxygen species (ROS) through the inhibition of complex IV of the electron transport chain. A model to measure the amount of inhibition produced by CO exposure and quantify it through respiratory rates was developed. In a Clark electrode, the oxygen respiration of isolated mitochondria from rat livers and left ventricle (LV) homogenate was measured, with the addition of the substrates succinate and ADP to measure maximal respiration. […] This effect was stronger in more hypoxic states, consistent with the known competition between CO and O2 for binding at the heme in cytochrome c oxidase (62% reduction in hypoxia versus ˜50% in normoxia).

LV homogenate = test: Cardiac tissue respiration, Clark-type oxygen electrode, LV homogenate; design: species or system rat; conditions: CO gas versus air
Method: Mitochondrial respiration was measured before and after CO gas exposure in a Clark-type oxygen electrode respirometry system. The effects of infusion of both reduced hemoglobin and myoglobin were evaluated. Fresh liver was collected from a normal rat, and mitochondria were isolated through differential centrifugation. For left ventricle (LV) tissue, fresh LV was collected from a normal rat and then homogenized. The resulting mitochondria and LV tissue was put into the Clark-type electrode air tight reaction chamber, then substrates (succinate (mitochondria) or malate and pyruvate (LV) and ADP) were added. Mitochondria respired to 0% oxygen and then the system was reoxygenated with a pipetted injection of room air. Mitochondria respired back down to the desired 02 concentration. […]
CO poisoning has long term effects on patients, and one theory is the poisoning of mitochondria leads to generation of increased reactive oxygen species (ROS) through the inhibition of complex IV of the electron transport chain. A model to measure the amount of inhibition produced by CO exposure and quantify it through respiratory rates was developed. In a Clark electrode, the oxygen respiration of isolated mitochondria from rat livers and left ventricle (LV) homogenate was measured, with the addition of the substrates succinate and ADP to measure maximal respiration. […]

[2] = cited from earlier work; for Kd: CO; for kon: rate of CO binding; for koff: rate of CO dissociation
[3] = system: mice exposed to 30,000 ppm (3%) CO gas; test: Severe CO poisoning mouse model: survival and hemodynamics; assay type: in vivo; conditions: for effect on hemodynamic collapse (heart rate, mean arterial blood pressure) induced by CO: infusion after 4.5 minutes of 3% CO
Method: To establish a model for cardiovascular and mortality end points, tracheally intubated, ventilated, anesthetized mice were exposed to 30,000 ppm (3%) CO gas, with 21% oxygen and 1.5% isoflurane for 4.5 minutes. Mice were surgically instrumented with placement of jugular venous (for infusion of drug) and carotid arterial (for blood pressure and heart rate monitoring) catheters. In this model, there was 88.2% (15/17) mortality in a group infused with 300 μL of PBS post exposure, while all mice that received an infusion of 11 mM myoglobin survived (0% mortality; n=5). Survival of mice infused with myoglobin was due to the reversal in hemodynamic collapse and bradycardia induced by CO (FIG. 5).
(§1) Tracheally intubated, ventilated, anesthetized mice were exposed to 30,000 ppm (3%) CO gas, with 21% oxygen and 1.5% isoflurane for 4.5 minutes. Mice were surgically instrumented with placement of jugular venous (for infusion of drug) and carotid arterial (for blood pressure and heart rate monitoring) catheters. In this model, all mice that received PEG-Hb (n=3) survived. The concentration infused was 10 mM at approximately 200 to 250 microliters volume.

[4] = Safety of oxygen carriers in healthy mice; assay type: in vivo
Method: Healthy mice were anesthetized with 3% isoflurane gas and myoglobin and hemoglobin were injected into the retro-orbital space. […] At 48 hours, the animals were sacrificed, their serum was analyzed for blood chemistries and whole blood was tested for complete blood count.

HbCO = test: Severe CO poisoning mouse model: HbCO level by spectrometry; assay type: in vivo, mice; conditions: Example 9
Method: To establish a model for cardiovascular and mortality end points, tracheally intubated, ventilated, anesthetized mice were exposed to 30,000 ppm (3%) CO gas, with 21% oxygen and 1.5% isoflurane for 4.5 minutes. Mice were surgically instrumented with placement of jugular venous (for infusion of drug) and carotid arterial (for blood pressure and heart rate monitoring) catheters.
(§2) Through the jugular venous catheter, the HbCO level was sampled using spectrometry. […] Mouse half-life for CO is much faster than for humans.
as §1, with “In this model, all mice that received PEG-Hb (n=3) survived.” left out
as §2

## [C-]#[O+] [CO, carbon monoxide]
[1]; CO gas versus room air
  decrease of respiration from pre-CO (maximal) respiration: 60.5%
[1]; hypoxia
  reduction of respiration: 62%
[1]; normoxia
  reduction of respiration: ~50%
LV homogenate
  decrease of respiration from pre-CO (maximal) respiration: 75.6%

## Human Hb (alpha subunit, R-state): human hemoglobin alpha subunit, R-state
[2]
  Kd: 2 nM
  kon: 6e+06 M⁻¹ s⁻¹
  koff: 0.012 s⁻¹

## Human Hb (beta subunit, T-state): human hemoglobin beta subunit, T-state
[2]
  Kd: 3800 nM
  kon: 50000 M⁻¹ s⁻¹
  koff: 0.19 s⁻¹

## hemoglobin: hemoglobin, natural oxygen carrier, infused in reduced (deoxy) form as CO scavenger
[3]; infused with <4 mM
  survival: died
[3]; infused with ≥4 mM
  survival: all survived
[3]
  effect on hemodynamic collapse (heart rate, mean arterial blood pressure) induced by CO: reversed
[4]; retro-orbital injection, 8-12 mM, observed for 48 hours
  tolerability of infusion: well tolerated
[4]; serum at 48 hours
  blood chemistries: normal kidney and liver function
[4]; whole blood at 48 hours
  hematology profile: only a slight decline in platelets
[1]; 0.5 equimolar, after CO gas
  increase of respiration from the CO inhibited rate: 95%

## PEG-Hb: surface conjugation of polyethylene glycol to human hemoglobin; artificial oxygen carrier
[3]; 10 mM, approximately 200 to 250 microliters, n=3
  survival: survived
[3]
  effect on hemodynamic collapse (heart rate, mean arterial blood pressure) induced by CO: restored
HbCO; five minutes after infusion
  HbCO level: 66%
HbCO; ten minutes after treatment
  HbCO level: 62%

## Human Hb (beta subunit, R-state): human hemoglobin beta subunit, R-state
[2]
  Kd: 0.946 nM
  kon: 7.4e+06 M⁻¹ s⁻¹
  koff: 0.007 s⁻¹

## Human Hb (alpha subunit, T-state): human hemoglobin alpha subunit, T-state
[2]
  Kd: 1750 nM
  kon: 120000 M⁻¹ s⁻¹
  koff: 0.21 s⁻¹

Source: US12251427B2, “Reduced oxygen carriers and their use for the treatment of carboxyhemoglobinemia” (priority 2016, dated 2025)
